Tests used:
Format in all cases: biochemical
ADAM17 = ADAM17 (Homo sapiens, UniProt P78536); experiment: FRET assay, inhibition of ADAM17
Excerpt: (§1) FRET assay is a method to detect and quantify the fluorescent signal generated when ADAM/ADAMTS proteins […] specific peptides.

ADAMTS5 = target: T1, ADAMTS5 (Homo sapiens, UniProt Q9UNA0); experiment: FRET assay, inhibition of ADAMTS5
T1 sequence (Q9UNA0 262-930): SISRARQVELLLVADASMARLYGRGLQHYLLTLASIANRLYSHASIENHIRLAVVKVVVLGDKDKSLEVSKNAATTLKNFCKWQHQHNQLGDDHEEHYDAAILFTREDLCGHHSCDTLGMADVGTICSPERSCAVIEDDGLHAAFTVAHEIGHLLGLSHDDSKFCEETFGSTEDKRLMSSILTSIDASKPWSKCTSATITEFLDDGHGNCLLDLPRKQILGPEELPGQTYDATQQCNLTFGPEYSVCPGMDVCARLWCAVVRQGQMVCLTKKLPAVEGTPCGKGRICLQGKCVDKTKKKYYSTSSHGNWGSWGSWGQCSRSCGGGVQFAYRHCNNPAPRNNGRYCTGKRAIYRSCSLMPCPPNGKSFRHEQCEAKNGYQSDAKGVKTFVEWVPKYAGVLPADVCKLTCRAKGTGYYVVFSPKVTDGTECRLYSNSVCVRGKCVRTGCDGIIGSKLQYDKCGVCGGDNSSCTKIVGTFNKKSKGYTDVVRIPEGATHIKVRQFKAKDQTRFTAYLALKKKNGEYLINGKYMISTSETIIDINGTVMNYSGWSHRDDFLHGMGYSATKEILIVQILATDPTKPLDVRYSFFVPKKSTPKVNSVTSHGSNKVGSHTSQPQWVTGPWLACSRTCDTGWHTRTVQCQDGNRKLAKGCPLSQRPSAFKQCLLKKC
Experimental: The control compound GLPG-1972 and four effective compounds (CLS-S210 (Formula 2), CLS-S282 (Formula 3), CLS-S213 (Formula 4), and CLS-S214 (Formula 5)) were treated with ADAMTS5, ADAMTS4, ADAM10, and ADAM17 proteins to perform Fluorescence Resonance Energy Transfer (FRET) evaluation. FRET assay is a method to detect and quantify the fluorescent signal generated when ADAM/ADAMTS proteins […] specific peptides.

ADAM10 = target: T2, ADAM10 (Homo sapiens, UniProt O14672); experiment: FRET assay, inhibition of ADAM10
T2 sequence (O14672 214-748): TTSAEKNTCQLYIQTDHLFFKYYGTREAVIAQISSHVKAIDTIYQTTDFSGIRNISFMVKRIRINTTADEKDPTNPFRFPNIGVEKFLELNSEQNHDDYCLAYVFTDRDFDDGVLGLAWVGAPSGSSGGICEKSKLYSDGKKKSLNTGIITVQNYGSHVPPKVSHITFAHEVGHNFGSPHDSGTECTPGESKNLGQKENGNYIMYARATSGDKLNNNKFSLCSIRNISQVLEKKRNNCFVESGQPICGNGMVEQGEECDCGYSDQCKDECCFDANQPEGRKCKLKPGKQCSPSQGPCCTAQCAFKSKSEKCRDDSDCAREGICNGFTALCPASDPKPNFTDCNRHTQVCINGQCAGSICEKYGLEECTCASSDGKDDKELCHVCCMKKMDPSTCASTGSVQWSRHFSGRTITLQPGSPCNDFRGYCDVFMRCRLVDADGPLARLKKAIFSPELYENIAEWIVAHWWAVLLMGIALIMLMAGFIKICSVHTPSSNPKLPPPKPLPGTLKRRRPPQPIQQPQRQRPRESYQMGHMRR
Excerpt: as §1

Sequence of ADAM17 (P78536 215-824, species assumed): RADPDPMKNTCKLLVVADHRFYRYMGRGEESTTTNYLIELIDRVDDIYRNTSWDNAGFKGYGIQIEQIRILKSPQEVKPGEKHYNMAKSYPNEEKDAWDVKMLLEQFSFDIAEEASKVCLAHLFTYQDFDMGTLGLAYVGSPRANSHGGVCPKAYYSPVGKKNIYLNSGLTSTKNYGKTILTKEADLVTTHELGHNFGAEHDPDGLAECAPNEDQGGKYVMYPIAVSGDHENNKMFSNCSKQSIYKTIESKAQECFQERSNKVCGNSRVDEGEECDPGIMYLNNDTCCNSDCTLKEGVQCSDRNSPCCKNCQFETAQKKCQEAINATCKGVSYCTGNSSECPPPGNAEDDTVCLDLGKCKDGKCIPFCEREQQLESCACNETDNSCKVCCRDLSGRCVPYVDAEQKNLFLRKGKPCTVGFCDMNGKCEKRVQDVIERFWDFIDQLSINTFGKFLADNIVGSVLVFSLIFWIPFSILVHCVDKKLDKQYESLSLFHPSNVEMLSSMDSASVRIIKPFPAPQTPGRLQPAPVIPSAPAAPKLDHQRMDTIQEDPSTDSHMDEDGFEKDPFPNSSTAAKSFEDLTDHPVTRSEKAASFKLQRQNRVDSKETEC

`CC(C)C[C@H](CC(=O)NO)C(=O)N[C@@H](Cc1ccc2ccccc2c1)C(=O)N[C@@H](C)C(N)=O` [TAPI-0] was tested, and the “inhibition ability against ADAM17 (in words)” value (ADAM17) was “inhibit ADAM10 and ADAM17 at low concentrations”.

`C[C@H]1CN(C(=O)CC[C@@]2(C3CC3)NC(=O)NC2=O)CCN1c1cc(F)cc(F)c1` [GLPG-1972] was tested, and the IC50 (ADAMTS5) was 65 nM.

In the case of `CNC(=O)[C@@H](NC(=O)[C@H](CCCc1ccccc1)[C@H](C)N(O)C=O)C(C)(C)C` [GI254023X], the “inhibition ability against ADAM10 (in words)” value (ADAM10) is reported as “inhibit ADAM10 and ADAM17 at low concentrations”.

— patent publication US20250313558A1, “IMIDAZOLIDINE DERIVATIVE OR PHARMACEUTICALLY ACCEPTABLE SALT THEREOF, AND USE THEREOF” (CELLUS INC., priority 2023, published 2025)
